Assay results reported in patent US20220323406A1, “METHODS AND COMPOSITIONS FOR DIFFERENTIATING STEM CELLS” (Massachusetts Institute of Technology, priority 2019, published 2022).
Counter-ions that a name gives are not always drawn.

What was measured:
[1] = system: ENR+CD organoids (ISC to Paneth cell differentiation); test: Primary screen: CCh-stimulated lysozyme secretion LYZ.S, 2.5-D 384-well ENR+CD organoid differentiation; type: cell-based, mouse; settings: primary screen
Excerpt: (§1) High-throughput screening.

ENR+CD organoids = test: Primary screen: ATP (CellTiter-Glo 3D, CTG) cell number/viability, 2.5-D 384-well ENR+CD organoids;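 further: compounds given at plating and again on day 3 over a 6-day differentiation from ENR+CV stem-cell-enriched precursors, ATP measured on day 6, plate median as control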
[2] = system: ENR+CD organoids (ISC to Paneth cell differentiation); test: Primary screen: basal (non-stimulated) lysozyme secretion LYZ.NS, 2.5-D 384-well ENR+CD organoid differentiation; type: cell-based, mouse
Excerpt: as §1

[3] = primary screen, standard z score, dose 0.08 uM
[4] = primary screen, standard z score, dose 0.40 uM
[5] = primary screen, standard z score, dose 2.00 uM
[6] = primary screen, standard z score, dose 10.00 uM
[7] = primary screen, dose 0.08 uM, standard z score
[8] = primary screen, dose 0.40 uM, standard z score
[9] = primary screen, dose 2.00 uM, standard z score
[10] = primary screen, dose 10.00 uM, standard z score
[11] = primary screen; dose 0.08 uM; FC vs plate median
[12] = primary screen; dose 0.40 uM; FC vs plate median
[13] = primary screen; dose 2.00 uM; FC vs plate median
[14] = primary screen; dose 10.00 uM; FC vs plate median
[15] = dose 0.08 uM, FC relative to plate median
[16] = dose 0.40 uM, FC relative to plate median
[17] = dose 2.00 uM, FC relative to plate median
[18] = dose 10.00 uM, FC relative to plate median
[19] = primary screen, dose 0.08 uM, FC relative to plate median
[20] = primary screen, dose 0.40 uM, FC relative to plate median
[21] = primary screen, dose 2.00 uM, FC relative to plate median
[22] = primary screen, dose 10.00 uM, FC relative to plate median

Compound	Dose.FC.LYZ.S ([1]; dose 0.08 uM) [log2 fold change]	Dose.FC.LYZ.S ([1]; dose 0.40 uM) [log2 fold change]	Dose.FC.LYZ.S ([1]; dose 2.00 uM) [log2 fold change]	Dose.FC.LYZ.S ([1]; dose 10.00 uM) [log2 fold change]	Dose.FC.CTG (ENR+CD organoids; primary screen, dose 0.08 uM) [log2 fold change]	Dose.FC.CTG (ENR+CD organoids; primary screen, dose 0.40 uM) [log2 fold change]	Dose.FC.CTG (ENR+CD organoids; primary screen, dose 2.00 uM) [log2 fold change]	Dose.FC.CTG (ENR+CD organoids; primary screen, dose 10.00 uM) [log2 fold change]	Dose.FC.LYZ.NS ([2]; primary screen, dose 0.08 uM) [log2 fold change]	Dose.FC.LYZ.NS ([2]; primary screen, dose 0.40 uM) [log2 fold change]	Dose.FC.LYZ.NS ([2]; primary screen, dose 2.00 uM) [log2 fold change]	Dose.FC.LYZ.NS ([2]; primary screen, dose 10.00 uM) [log2 fold change]	Z.LYZ.NS [2, 3]	Z.LYZ.NS [2, 4]	Z.LYZ.NS [2, 5]	Z.LYZ.NS [2, 6]	Z.CTG (standard z score) (ENR+CD organoids; primary screen, dose 0.08 uM)	Z.CTG (standard z score) (ENR+CD organoids; primary screen, dose 0.40 uM)	Z.CTG (standard z score) (ENR+CD organoids; primary screen, dose 2.00 uM)	Z.CTG (standard z score) (ENR+CD organoids; primary screen, dose 10.00 uM)	other results
CCOc1nc2cccc(C(=O)O)c2n1Cc1ccc(-c2ccccc2-c2nnn[nH]2)cc1 [Candesartan]	−0.015	−0.032	−0.092	−0.075	−0.003	−0.125	−0.198	−0.253	0.013	−0.015	0.007	−0.051	0.113	−0.128	0.065	−0.442					
Cc1cc(-c2ccc(CC(=O)Nc3ccc(-c4cccnc4)cc3)cc2)ccn1 [Wnt-C59 (C59)]	−0.242	−0.281	−0.313	−0.301	−0.572	−0.611	−0.627	−0.613	−0.163	−0.182	−0.198	−0.191					−1.366	−1.461	−1.498	−1.465	Z.LYZ.NS (standard z score) ([2]; primary screen, dose 0.08 uM): −1.424; Z.LYZ.NS (standard z score) ([2]; primary screen, dose 0.40 uM): −1.588; Z.LYZ.NS (standard z score) ([2]; primary screen, dose 2.00 uM): −1.724; Z.LYZ.NS (standard z score) ([2]; primary screen, dose 10.00 uM): −1.666
C/C(=C\C(=O)Nc1ccccc1C(=O)O)c1ccc2ccccc2c1 [BIBR 1532]	0.028	0.107	−0.081	−0.114	0.223	−0.047	−0.034	0.030	0.032	0.043	−0.013	−0.062					0.533	−0.113	−0.080	0.072	Z.LYZ.NS (standard z score) ([2]; primary screen, dose 0.08 uM): 0.282; Z.LYZ.NS (standard z score) ([2]; primary screen, dose 0.40 uM): 0.377; Z.LYZ.NS (standard z score) ([2]; primary screen, dose 2.00 uM): −0.117; Z.LYZ.NS (standard z score) ([2]; primary screen, dose 10.00 uM): −0.536
CN(c1ncccc1CNc1nc(Nc2ccc3c(c2)CC(=O)N3)ncc1C(F)(F)F)S(C)(=O)=O [PF-562271]																					Dose.FC.LYZ.S ([1]; dose 0.08 uM, FC vs plate median): −0.088 log2 fold change; Dose.FC.LYZ.S ([1]; dose 0.40 uM, FC vs plate median): −0.214 log2 fold change; Dose.FC.LYZ.S ([1]; dose 2.00 uM, FC vs plate median): −0.332 log2 fold change; Dose.FC.LYZ.S ([1]; dose 10.00 uM, FC vs plate median): −0.414 log2 fold change; Z.CTG (ENR+CD organoids; [7]): −0.273; Z.CTG (ENR+CD organoids; [8]): −0.518; Z.CTG (ENR+CD organoids; [9]): −1.311; Z.CTG (ENR+CD organoids; [10]): −2.266; Dose.FC.CTG (ENR+CD organoids; [11]): −0.114 log2 fold change; Dose.FC.CTG (ENR+CD organoids; [12]): −0.217 log2 fold change; Dose.FC.CTG (ENR+CD organoids; [13]): −0.549 log2 fold change; Dose.FC.CTG (ENR+CD organoids; [14]): −0.949 log2 fold change; Z.LYZ.NS [2, 7]: −0.589; Z.LYZ.NS [2, 8]: −1.325; Z.LYZ.NS [2, 9]: −2.034; Z.LYZ.NS [2, 10]: −2.184; Dose.FC.LYZ.NS [2, 11]: −0.068 log2 fold change; Dose.FC.LYZ.NS [2, 12]: −0.152 log2 fold change; Dose.FC.LYZ.NS [2, 13]: −0.234 log2 fold change; Dose.FC.LYZ.NS [2, 14]: −0.251 log2 fold change
SNS-314 Mesylate																					Dose.FC.LYZ.S [1, 15]: −0.115 log2 fold change; Dose.FC.LYZ.S [1, 16]: −0.103 log2 fold change; Dose.FC.LYZ.S [1, 17]: −0.133 log2 fold change; Dose.FC.LYZ.S [1, 18]: −0.198 log2 fold change; Dose.FC.CTG (ENR+CD organoids; [19]): −0.666 log2 fold change; Z.CTG (ENR+CD organoids; [7]): −1.591; Dose.FC.CTG (ENR+CD organoids; [20]): −0.777 log2 fold change; Z.CTG (ENR+CD organoids; [8]): −1.857; Dose.FC.CTG (ENR+CD organoids; [21]): −0.478 log2 fold change; Z.CTG (ENR+CD organoids; [9]): −1.142; Dose.FC.CTG (ENR+CD organoids; [22]): −0.620 log2 fold change; Z.CTG (ENR+CD organoids; [10]): −1.480; Dose.FC.LYZ.NS [2, 19]: −0.071 log2 fold change; Z.LYZ.NS [2, 7]: −0.620; Dose.FC.LYZ.NS [2, 20]: −0.059 log2 fold change; Z.LYZ.NS [2, 8]: −0.515; Dose.FC.LYZ.NS [2, 21]: −0.128 log2 fold change; Z.LYZ.NS [2, 9]: −1.111; Dose.FC.LYZ.NS [2, 22]: −0.127 log2 fold change; Z.LYZ.NS [2, 10]: −1.109
C[C@@H](NCCCc1cccc(C(F)(F)F)c1)c1cccc2ccccc12 [Cinacalcet HCl]	−0.084	0.039	−0.025	−0.130	−0.444	−0.298	−0.012	−0.451	−0.062	−0.023	−0.022	−0.091	−0.536	−0.202	−0.189	−0.790					
Cc1cccc(-c2nn3c(c2-c2ccnc4ccc(C(N)=O)cc24)CCC3)n1 [LY2157299]																	0.218	0.328	0.041	0.226	Dose.FC.LYZ.S (log2 fold change) ([1]; dose 0.08 uM): 0.187; Dose.FC.LYZ.S (log2 fold change) ([1]; dose 0.40 uM): 0.199; Dose.FC.LYZ.S (log2 fold change) ([1]; dose 2.00 uM): 0.113; Dose.FC.LYZ.S (log2 fold change) ([1]; dose 10.00 uM): 0.223; Dose.FC.CTG (log2 fold change) (ENR+CD organoids; primary screen, dose 0.08 uM): 0.091; Dose.FC.CTG (log2 fold change) (ENR+CD organoids; primary screen, dose 0.40 uM): 0.137; Dose.FC.CTG (log2 fold change) (ENR+CD organoids; primary screen, dose 2.00 uM): 0.017; Dose.FC.CTG (log2 fold change) (ENR+CD organoids; primary screen, dose 10.00 uM): 0.095; Dose.FC.LYZ.NS (log2 fold change) ([2]; primary screen, dose 0.08 uM): 0.227; Z.LYZ.NS (standard z score) ([2]; primary screen, dose 0.08 uM): 1.973; Dose.FC.LYZ.NS (log2 fold change) ([2]; primary screen, dose 0.40 uM): 0.140; Z.LYZ.NS (standard z score) ([2]; primary screen, dose 0.40 uM): 1.221; Dose.FC.LYZ.NS (log2 fold change) ([2]; primary screen, dose 2.00 uM): 0.092; Z.LYZ.NS (standard z score) ([2]; primary screen, dose 2.00 uM): 0.799; Dose.FC.LYZ.NS (log2 fold change) ([2]; primary screen, dose 10.00 uM): 0.162; Z.LYZ.NS (standard z score) ([2]; primary screen, dose 10.00 uM): 1.408
CNC(=O)c1ccc(N2C(=S)N(c3ccc(C#N)c(C(F)(F)F)c3)C(=O)C2(C)C)cc1F [Enzalutamide (MDV3100)]	0.176	0.276	0.077	0.076	0.195	0.256	0.076	0.146	0.162	0.166	0.024	0.094	1.411	1.446	0.210	0.820					Z.CTG (ENR+CD organoids; [3]): 0.465; Z.CTG (ENR+CD organoids; [4]): 0.611; Z.CTG (ENR+CD organoids; [5]): 0.181; Z.CTG (ENR+CD organoids; [6]): 0.348
COc1ccccc1OCCNCC(O)COc1cccc2[nH]c3ccccc3c12 (stereo not shown) [Carvedilol]	−0.009	−0.079	−0.087	0.019	0.057	−0.014	−0.151	−0.242	0.002	−0.020	0.099	−0.053	0.021	−0.175	0.866	−0.464					
Cc1cc2c(cc1CC(=O)c1sccc1S(=O)(=O)Nc1onc(C)c1Cl)OCO2 [Sitaxentan sodium]																					Dose.FC.LYZ.S [1, 15]: −0.017 log2 fold change; Dose.FC.LYZ.S [1, 16]: −0.028 log2 fold change; Dose.FC.LYZ.S [1, 17]: 0.136 log2 fold change; Dose.FC.LYZ.S [1, 18]: −0.047 log2 fold change; Dose.FC.CTG (ENR+CD organoids; [19]): 0.095 log2 fold change; Dose.FC.CTG (ENR+CD organoids; [20]): −0.200 log2 fold change; Dose.FC.CTG (ENR+CD organoids; [21]): −0.096 log2 fold change; Dose.FC.CTG (ENR+CD organoids; [22]): −0.100 log2 fold change; Dose.FC.LYZ.NS [2, 19]: 0.094 log2 fold change; Z.LYZ.NS [2, 7]: 0.816; Dose.FC.LYZ.NS [2, 20]: −0.052 log2 fold change; Z.LYZ.NS [2, 8]: −0.455; Dose.FC.LYZ.NS [2, 21]: 0.090 log2 fold change; Z.LYZ.NS [2, 9]: 0.782; Dose.FC.LYZ.NS [2, 22]: −0.038 log2 fold change; Z.LYZ.NS [2, 10]: −0.332
